Source: EPA's ToxValDB 9.5 (doi:10.2903/j.efsa.2010.1931)
In brackets after ≈: the same amount, converted by molar mass.

Key:
[1] = system: Typhlodromus pyri; test: LR50; higher = less toxic; settings: acute; duration: 7 days; mortality
[2] = system: Rattus norvegicus
[3] = system: Colinus virginianus; settings: for LD50: acute, oral, mortality
[4] = system: Apis mellifera; settings: acute; duration: 48 hours; oral; unspecified; mortality
[5] = system: Oryctolagus sp.; settings: chronic; body weight
[6] = system: Anas platyrhynchos; settings: acute; oral; unspecified; mortality
[7] = system: Oncorhynchus mykiss; settings: mortality
[8] = system: Daphnia magna; settings: chronic/long-term; duration: 21 days; reproduction
[9] = system: Tagia sp.

## COCCOc1cccc2c1c(=O)c(C(=O)O)nn2-c1ccc(Cl)cc1
[1]
  LR50: 1460 g/ha
[2]; acute, oral, mortality
  LD50: > 5000 mg/kg-day
[2]; chronic, duration: 2 years, mortality
  NOAEL: 9.1 mg/kg-day
[2]; subchronic, duration: 90 days, oral, histopathology: nonneoplastic
  NOAEL: 16.5 mg/kg-day
[3]; diet
  LD50: > 642 mg/kg-day
[3]
  LD50: > 1440 mg/kg-day
[3]; reproduction developmental
  NOEL: 119 mg/kg-day
[4]
  LD50: > 100 µg/piece
[5]
  NOEL: 125 mg/kg-day
[6]
  LD50: > 1440 mg/kg-day
[7]; acute, duration: 96 hours
  LC50: 570 µg/mL (≈ 1520 µM)
[7]; chronic/long-term, duration: 28 days
  NOEC: 100 mg/L
[8]
  NOEC: 7.03 mg/L
[9]; acute, duration: 14 days, mortality
  LC50: 20 mg/kg
[9]; chronic/long-term, reproduction
  NOEC: 20 mg/kg
